Reference: ChEMBL document CHEMBL1201862, “PubChem BioAssay data set” (2004)
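How tested: cells in 96-well plates exposed to compound for 48 hours at five concentrations. The concentration for 50% growth inhibition is given as GI50.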 Activity calls are given as the source filed them. Cut-off read from the data, not from the text of the source: active = GI50 up to about 1.1 µM and inactive = higher.

Experiments:
Test in all cases: growth of human tumour cells (NCI), 48 h
A549 = test system: A549
CCRF-CEM = test system: CCRF-CEM
SF-295 = test system: SF-295
HT-29 = test system: HT-29
SK-OV-3 = test system: SK-OV-3
OVCAR-3 = test system: OVCAR-3
HCC 2998 = test system: HCC 2998
HOP-62 = test system: HOP-62
NCI-H460 = test system: NCI-H460
SK-MEL-5 = test system: SK-MEL-5
UACC-62 = test system: UACC-62
UO-31 = test system: UO-31
U-251 = test system: U-251
OVCAR-8 = test system: OVCAR-8
SW-620 = test system: SW-620
HOP-92 = test system: HOP-92
IGROV-1 = test system: IGROV-1
LOX IMVI = test system: LOX IMVI
UACC-257 = test system: UACC-257
COLO 205 = test system: COLO 205

Compound | GI50 (A549) | GI50 (CCRF-CEM) | GI50 (SF-295) | GI50 (HT-29) | GI50 (SK-OV-3) | GI50 (OVCAR-3) | GI50 (HCC 2998) | GI50 (HOP-62) | GI50 (NCI-H460) | GI50 (SK-MEL-5) | GI50 (UACC-62) | GI50 (UO-31) | GI50 (U-251) | GI50 (OVCAR-8) | GI50 (SW-620) | GI50 (HOP-92) | GI50 (IGROV-1) | GI50 (LOX IMVI) | GI50 (UACC-257) | GI50 (COLO 205)
O=c1cc(O)ccn1C1C=C(CO)C(O)C1O (centres undefined) | > 625 µM (inactive) | > 625 µM (inactive) | > 625 µM (inactive) | > 625 µM (inactive) | > 625 µM (inactive) | > 625 µM (inactive) | > 625 µM (inactive) | > 625 µM (inactive) | 131 µM (inactive) | > 625 µM (inactive) | > 625 µM (inactive) | > 625 µM (inactive) | > 625 µM (inactive) | > 625 µM (inactive) | > 625 µM (inactive) | 192 µM (inactive) | > 625 µM (inactive) | 455 µM (inactive) | – | –
O=C1c2ccccc2C(=O)c2c(OCCOCCO)cccc21 | > 100 µM (inactive) | – | 96.6 µM (inactive) | 63.4 µM (inactive) | > 100 µM (inactive) | 28.4 µM (inactive) | – | > 100 µM (inactive) | 54.7 µM (inactive) | 44.2 µM (inactive) | 0.585 µM (active) | 38.9 µM (inactive) | > 100 µM (inactive) | 70.1 µM (inactive) | 57.5 µM (inactive) | 12.6 µM (inactive) | 45.5 µM (inactive) | 50.2 µM (inactive) | > 100 µM (inactive) | > 100 µM (inactive)
Cc1c(/C=N/NC(=O)c2ccccc2O)c(=O)n(-c2ccccc2)n1C | > 100 µM (inactive) | 50.2 µM (inactive) | > 100 µM (inactive) | > 100 µM (inactive) | > 100 µM (inactive) | > 100 µM (inactive) | > 100 µM (inactive) | 58.3 µM (inactive) | 47.1 µM (inactive) | – | > 100 µM (inactive) | 54.7 µM (inactive) | > 100 µM (inactive) | > 100 µM (inactive) | > 100 µM (inactive) | > 100 µM (inactive) | > 100 µM (inactive) | 45.4 µM (inactive) | > 100 µM (inactive) | > 100 µM (inactive)
COc1ccc(C(CC(=O)c2cccs2)C(=O)c2ccc3c(c2)OCO3)cc1 (centres undefined) | > 100 µM (inactive) | > 100 µM (inactive) | – | – | > 100 µM (inactive) | – | > 100 µM (inactive) | > 100 µM (inactive) | > 100 µM (inactive) | > 100 µM (inactive) | > 100 µM (inactive) | – | > 100 µM (inactive) | > 100 µM (inactive) | > 100 µM (inactive) | – | > 100 µM (inactive) | > 100 µM (inactive) | > 100 µM (inactive) | > 100 µM (inactive)
CCOP(=O)(OCC)C(Cc1ccc(OC)c(OC)c1)N=C(c1ccccc1)c1ccccc1 (centres undefined) | 26.5 µM (inactive) | 24 µM (inactive) | 26.2 µM (inactive) | 36.8 µM (inactive) | – | 34.4 µM (inactive) | 24.6 µM (inactive) | – | 34 µM (inactive) | 23.4 µM (inactive) | 68.7 µM (inactive) | 40.4 µM (inactive) | 46.1 µM (inactive) | 42.9 µM (inactive) | 47.6 µM (inactive) | 37.9 µM (inactive) | 45.2 µM (inactive) | – | 56.8 µM (inactive) | 18.9 µM (inactive)
COc1ccc(OC)c2c1C(=O)C(Cl)=C(N1CCN(CCOCCO)CC1)C2=O | 20.5 µM (inactive) | 2.72 µM (inactive) | 18.7 µM (inactive) | 6 µM (inactive) | 19.6 µM (inactive) | 17.3 µM (inactive) | 12.4 µM (inactive) | 5.07 µM (inactive) | 18.8 µM (inactive) | 16.5 µM (inactive) | 10.5 µM (inactive) | 16.4 µM (inactive) | 21.4 µM (inactive) | 16.6 µM (inactive) | 8.85 µM (inactive) | 17.7 µM (inactive) | 7.31 µM (inactive) | – | 17.3 µM (inactive) | > 10 µM (inactive)
COc1ccc(-c2c(-c3ccccc3)c(C)nc3nc(SC)nc(SC)c23)cc1OC | 1.4 µM (inactive) | 4.26 µM (inactive) | 7.55 µM (inactive) | 5.71 µM (inactive) | 3.72 µM (inactive) | 14.4 µM (inactive) | 25 µM (inactive) | 9.08 µM (inactive) | 2.12 µM (inactive) | 4.76 µM (inactive) | 11.3 µM (inactive) | 3.79 µM (inactive) | 9.1 µM (inactive) | – | 6.32 µM (inactive) | 4.39 µM (inactive) | 30 µM (inactive) | 11.4 µM (inactive) | 21.5 µM (inactive) | 11.6 µM (inactive)
CC1(O)CCC2(C#N)CCC1C2O (centres undefined) | > 100 µM (inactive) | 49 µM (inactive) | > 100 µM (inactive) | > 100 µM (inactive) | > 100 µM (inactive) | > 100 µM (inactive) | > 100 µM (inactive) | > 100 µM (inactive) | 43.9 µM (inactive) | > 100 µM (inactive) | > 100 µM (inactive) | > 100 µM (inactive) | > 100 µM (inactive) | > 100 µM (inactive) | – | – | > 100 µM (inactive) | 23.2 µM (inactive) | > 100 µM (inactive) | 33.9 µM (inactive)
CCOC(=O)CCC(NC(=O)c1ccc(Nc2nc3cc(C(F)(F)F)ccc3nc2C(=O)OCC)cc1)C(=O)OCC (centres undefined) | 8.63 µM (inactive) | > 100 µM (inactive) | 5.74 µM (inactive) | 4.18 µM (inactive) | – | 13.8 µM (inactive) | 30.8 µM (inactive) | 14 µM (inactive) | 18 µM (inactive) | 23.9 µM (inactive) | 9.16 µM (inactive) | 11.6 µM (inactive) | 11.3 µM (inactive) | 5.45 µM (inactive) | 18.6 µM (inactive) | 0.975 µM (active) | 17.1 µM (inactive) | 16.8 µM (inactive) | 11 µM (inactive) | 4.14 µM (inactive)
CCCCCNC(=O)c1c(O)[nH]c(=S)[nH]c1=O | 66.5 µM (inactive) | > 100 µM (inactive) | 78.2 µM (inactive) | > 100 µM (inactive) | > 100 µM (inactive) | > 100 µM (inactive) | – | > 100 µM (inactive) | > 100 µM (inactive) | > 100 µM (inactive) | > 100 µM (inactive) | – | 66.8 µM (inactive) | 94.4 µM (inactive) | > 100 µM (inactive) | > 100 µM (inactive) | > 100 µM (inactive) | > 100 µM (inactive) | > 100 µM (inactive) | > 100 µM (inactive)
COc1cc(-c2ccc(/N=N/c3c(S(=O)(=O)O)cc4cc(S(=O)(=O)O)cc(N)c4c3O)c(OC)c2)ccc1/N=N/c1c(S(=O)(=O)O)cc2cc(S(=O)(=O)O)cc(N)c2c1O | > 77.4 µM (inactive) | > 88.3 µM (inactive) | > 100 µM (inactive) | > 62.1 µM (inactive) | > 100 µM (inactive) | > 62.8 µM (inactive) | > 100 µM (inactive) | > 100 µM (inactive) | > 100 µM (inactive) | > 100 µM (inactive) | – | > 80.4 µM (inactive) | > 100 µM (inactive) | > 100 µM (inactive) | 73.5 µM (inactive) | 34 µM (inactive) | > 100 µM (inactive) | > 90.6 µM (inactive) | > 100 µM (inactive) | > 100 µM (inactive)
C/C1=C\[C@@H](C)C[C@@H](C)OC(=O)[C@@H](C)NC(=O)[C@H](Cc2ccc(O)c(Br)c2)N(C)C(=O)CNC(=O)[C@H](C)C1 | < 0.01 µM (active) | < 0.01 µM (active) | 0.0114 µM (active) | < 0.01 µM (active) | < 0.01 µM (active) | < 0.01 µM (active) | < 0.01 µM (active) | < 0.01 µM (active) | < 0.01 µM (active) | < 0.01 µM (active) | – | 0.026 µM (active) | < 0.01 µM (active) | 0.137 µM (active) | < 0.01 µM (active) | < 0.01 µM (active) | < 0.01 µM (active) | < 0.01 µM (active) | < 0.01 µM (active) | < 0.01 µM (active)
CN1CC(c2ccccc2)N(CCCCN2CC(c3ccccc3)N(C)CC2c2ccccc2)CC1c1ccccc1 (centres undefined) | 33.4 µM (inactive) | 20.9 µM (inactive) | 34.8 µM (inactive) | 24.4 µM (inactive) | > 100 µM (inactive) | 53.3 µM (inactive) | 24.4 µM (inactive) | 28.4 µM (inactive) | 18.1 µM (inactive) | 31.7 µM (inactive) | 30.7 µM (inactive) | 57.9 µM (inactive) | – | 44.3 µM (inactive) | 35.2 µM (inactive) | 26.8 µM (inactive) | 45 µM (inactive) | 14.8 µM (inactive) | 13.5 µM (inactive) | 28.8 µM (inactive)
COc1ccc(-c2cc(O)c3c(C)cc(C)nc3n2)cc1 | 55.3 µM (inactive) | 16.9 µM (inactive) | – | 20.3 µM (inactive) | > 100 µM (inactive) | – | 43.2 µM (inactive) | 26.8 µM (inactive) | – | – | 18.4 µM (inactive) | 38 µM (inactive) | – | 33.5 µM (inactive) | 38.9 µM (inactive) | 26.9 µM (inactive) | 23.3 µM (inactive) | 27.4 µM (inactive) | 25.9 µM (inactive) | 20.8 µM (inactive)
O=c1[nH]c2ccccc2n1CCCN1CCC(n2c(=O)[nH]c3cc(Cl)ccc32)CC1 [DOMPERIDONE] | 21.8 µM (inactive) | 27.8 µM (inactive) | – | 14.6 µM (inactive) | 23.7 µM (inactive) | 17.9 µM (inactive) | 16.7 µM (inactive) | 18.3 µM (inactive) | 17.4 µM (inactive) | 14.6 µM (inactive) | 18.3 µM (inactive) | 4.7 µM (inactive) | – | 18.3 µM (inactive) | 17.3 µM (inactive) | 22.2 µM (inactive) | 19.2 µM (inactive) | – | 16.9 µM (inactive) | 12.7 µM (inactive)
